# Source: US12655116B2, “Substituted isophthalic acid diamides” (Bayer Aktiengesellschaft, priority 2020, dated 2026)
# Tests used:
# [1] = tested on: ABUTH; assay: Pre-emergence herbicidal action against ABUTH; assay type: in vivo, Abutilon theophrasti
# In short: (§1)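 Seeds sown in sandy loam, soil-covered; compound sprayed on soil surface pre-emergence. Application: WP/EC, 600–800 l/ha, 0.2% wetting agent. Readout: visual % damage at 3 weeks.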
# [2] = tested on: ALOMY; assay: Pre-emergence herbicidal action against ALOMY; assay type: in vivo, Alopecurus myosuroides
# In short: as §1
# [3] = tested on: AMARE; assay: Pre-emergence herbicidal action against AMARE; assay type: in vivo, Amaranthus retroflexus
# In short: as §1
# [4] = tested on: AVEFA; assay: Pre-emergence herbicidal action against AVEFA; assay type: in vivo, Avena fatua
# In short: as §1
# [5] = tested on: ECHCG; assay: Pre-emergence herbicidal action against ECHCG; assay type: in vivo, Echinochloa crus-galli
# In short: as §1
# [6] = tested on: MATIN; assay: Pre-emergence herbicidal action against MATIN; assay type: in vivo, Matricaria inodora
# In short: as §1
# [7] = tested on: PHBPU; assay: Pre-emergence herbicidal action against PHBPU; assay type: in vivo, Pharbitis purpurea; settings: dosage 80 g/ha
# In short: as §1
# [8] = tested on: POLCO; assay: Pre-emergence herbicidal action against POLCO; assay type: in vivo, Polygonum convolvulus; settings: dosage 80 g/ha
# In short: as §1
# [9] = tested on: SETVI; assay: Pre-emergence herbicidal action against SETVI; assay type: in vivo, Setaria viridis
# In short: as §1
# [10] = tested on: VERPE; assay: Pre-emergence herbicidal action against VERPE; assay type: in vivo, Veronica persica
# In short: as §1
# [11] = tested on: VIOTR; assay: Pre-emergence herbicidal action against VIOTR; assay type: in vivo, Viola tricolor
# In short: as §1
# [12] = tested on: ABUTH; assay: Post-emergence herbicidal action against ABUTH; assay type: in vivo, Abutilon theophrasti; settings: visual assessment about 3 weeks after treatment vs untreated controls
# In short: (§2)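 Sandy loam, greenhouse; treatment 2–3 weeks after sowing, one-leaf stage. Aqueous suspension or emulsion from WP/EC sprayed on foliage (600–800 l/ha, 0.2% wetting agent). Readout: visual % action, ~3 weeks.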
# [13] = tested on: ALOMY; assay: Post-emergence herbicidal action against ALOMY; assay type: in vivo, Alopecurus myosuroides; settings: visual assessment about 3 weeks after treatment vs untreated controls
# In short: as §2
# [14] = tested on: AMARE; assay: Post-emergence herbicidal action against AMARE; assay type: in vivo, Amaranthus retroflexus; settings: 20 g/ha, visual assessment about 3 weeks after treatment, 100% = plants have died, 0% = like control plants
# In short: as §2
# [15] = tested on: ECHCG; assay: Post-emergence herbicidal action against ECHCG; assay type: in vivo, Echinochloa crus-galli
# In short: as §2
# [16] = tested on: MATIN; assay: Post-emergence herbicidal action against MATIN; assay type: in vivo, Matricaria inodora; settings: dosage 20 g/ha
# In short: as §2
# [17] = tested on: PHBPU; assay: Post-emergence herbicidal action against PHBPU; assay type: in vivo, Pharbitis purpurea; settings: dosage 20 g/ha
# In short: as §2
# [18] = tested on: SETVI; assay: Post-emergence herbicidal action against SETVI; assay type: in vivo, Setaria viridis; settings: dosage 20 g/ha
# In short: as §2
# [19] = tested on: VERPE; assay: Post-emergence herbicidal action against VERPE; assay type: in vivo, Veronica persica
# In short: as §2
# [20] = tested on: VIOTR; assay: Post-emergence herbicidal action against VIOTR; assay type: in vivo, Viola tricolor
# In short: as §2
# [21] = tested on: DIGSA; assay: Pre-emergence herbicidal action against DIGSA; assay type: in vivo, Digitaria sanguinalis
# In short: as §1
# [22] = 80 g/ha, scored visually after 3 weeks vs untreated controls (100% = plants have died, 0% = like control plants)
# [23] = dosage 20 g/ha, scored visually after 3 weeks vs untreated controls, 100% = plants have died, 0% = like control plants
# [24] = 20 g/ha, scored visually after 3 weeks, 100% = plants have died, 0% = like control plants
# [25] = 80 g/ha, pre-emergence, scored visually after 3 weeks vs untreated controls (100% = plants have died, 0% = like control plants)
# [26] = 20 g/ha, scored visually after 3 weeks vs untreated controls, 100% = plants have died, 0% = like control plants
smiles,measurement,setting,value
CCc1c(C(=O)Nc2nnnn2C)ccc(C(F)(F)F)c1C(=O)NC(C)C1CC1 (stereo not drawn) [Example 1-341],Pre-emergence action against ABUTH (herbicidal activity),[1]; [22],100%
same,Pre-emergence action against ABUTH (herbicidal activity in percent),[1]; [23],100%
same,Pre-emergence action against ALOMY,[2]; [24],80%
same,Pre-emergence action against ALOMY (herbicidal activity),[2]; [25],90%
same,Pre-emergence action against AMARE in %,[3]; [26],100%
same,Pre-emergence action against AMARE in %,[3]; [22],100%
same,Pre-emergence action against AVEFA,[4]; [24],80%
same,Pre-emergence action against AVEFA in %,"[4]; 80 g/ha, pre-emergence",90%
same,Pre-emergence action against ECHCG in %,[5]; 80 g/ha,90%
same,Pre-emergence action against MATIN in %,[6]; dosage 20 g/ha,100%
same,Pre-emergence action against MATIN in %,[6]; dosage 80 g/ha,100%
same,Pre-emergence action against PHBPU in %,[7],80%
same,Pre-emergence action against POLCO in %,[8],80%
same,Pre-emergence action against SETVI in %,[9]; dosage 20 g/ha,80%
same,Pre-emergence action against SETVI in %,[9]; dosage 80 g/ha,100%
same,Pre-emergence action against VERPE in %,[10]; dosage 20 g/ha,80%
same,Pre-emergence action against VERPE in %,[10]; dosage 80 g/ha,90%
same,Pre-emergence action against VIOTR in %,[11]; dosage 20 g/ha,100%
same,Pre-emergence action against VIOTR in %,[11]; dosage 80 g/ha,100%
same,Post-emergence action against ABUTH in %,[12]; dosage 20 g/ha,80%
same,Post-emergence action against ALOMY in %,[13]; dosage 20 g/ha,80%
same,Post-emergence action at 20 g/ha against AMARE in %,[14],100%
same,Post-emergence action against ECHCG in %,[15]; dosage 5 g/ha,80%
same,Post-emergence action against ECHCG in %,[15]; dosage 20 g/ha,90%
same,Post-emergence action against MATIN in %,[16],80%
same,Post-emergence action against PHBPU in %,[17],80%
same,Post-emergence action against SETVI in %,[18],80%
same,Post-emergence action against VERPE in %,[19]; 5 g/ha,80%
same,Post-emergence action against VERPE in %,[19]; 20 g/ha,90%
same,Post-emergence action against VIOTR in %,[20]; 20 g/ha,80%
CCn1nnnc1NC(=O)c1ccc(C(F)F)c(C(=O)NC2CC2)c1OC [Example 2-74],Pre-emergence action against ABUTH (herbicidal activity),[1]; [22],100%
same,Pre-emergence action against ABUTH (herbicidal activity in percent),[1]; [23],100%
same,Pre-emergence action against ALOMY (herbicidal activity),[2]; [25],100%
same,Pre-emergence action against AMARE in %,[3]; [26],100%
same,Pre-emergence action against AMARE in %,[3]; [22],100%
same,Pre-emergence action against AVEFA in %,"[4]; 80 g/ha, pre-emergence",80%
same,Pre-emergence action against ECHCG in %,[5]; 80 g/ha,100%
same,Pre-emergence action against MATIN in %,[6]; dosage 20 g/ha,100%
same,Pre-emergence action against MATIN in %,[6]; dosage 80 g/ha,100%
same,Pre-emergence action against PHBPU in %,[7],90%
same,Pre-emergence action against POLCO in %,[8],80%
same,Pre-emergence action against SETVI in %,[9]; dosage 80 g/ha,100%
same,Pre-emergence action against VERPE in %,[10]; dosage 80 g/ha,90%
same,Pre-emergence action against VIOTR in %,[11]; dosage 20 g/ha,100%
same,Pre-emergence action against VIOTR in %,[11]; dosage 80 g/ha,100%
same,Pre-emergence action against DIGSA in %,[21]; dosage 20 g/ha,100%
same,Pre-emergence action against DIGSA in %,[21]; dosage 80 g/ha,100%
same,Post-emergence action against ABUTH in %,[12]; dosage 5 g/ha,80%
same,Post-emergence action against ABUTH in %,[12]; dosage 20 g/ha,80%
same,Post-emergence action against ALOMY in %,[13]; dosage 20 g/ha,80%
same,Post-emergence action against ECHCG in %,[15]; dosage 5 g/ha,80%
same,Post-emergence action against ECHCG in %,[15]; dosage 20 g/ha,80%
same,Post-emergence action against MATIN in %,[16],80%
same,Post-emergence action against PHBPU in %,[17],80%
same,Post-emergence action against SETVI in %,[18],90%
same,Post-emergence action against VERPE in %,[19]; 20 g/ha,80%
same,Post-emergence action against VIOTR in %,[20]; 20 g/ha,80%
CCCNC(=O)c1c(C(F)F)ccc(C(=O)Nc2nnnn2CC)c1C [Example 2-344],pest or weed control at 80 g/ha,"[1]; Abutilon theophrasti, 504 h, 80 g/ha, scored visually after 3 weeks vs untreated controls (100% = plants have died, 0% = like control plants)",100%
same,pest or weed control at 20 g/ha,"[1]; Abutilon theophrasti, 504 h, dosage 20 g/ha, scored visually after 3 weeks vs untreated controls, 100% = plants have died, 0% = like control plants, read-out: Pre-emergence action against ABUTH (herbicidal activity in percent)",100%
same,pest or weed control at 80 g/ha,"[2]; Alopecurus myosuroides, 504 h, 80 g/ha, pre-emergence, scored visually after 3 weeks vs untreated controls (100% = plants have died, 0% = like control plants)",100%
same,pest or weed control at 20 g/ha,"[2]; Alopecurus myosuroides, pre-emergence, 504 h, 20 g/ha, scored visually after 3 weeks, 100% = plants have died, 0% = like control plants",80%
same,pest or weed control at 20 g/ha,"[3]; Amaranthus retroflexus, 504 h, 20 g/ha, scored visually after 3 weeks vs untreated controls, 100% = plants have died, 0% = like control plants",100%
same,pest or weed control at 80 g/ha,"[3]; Amaranthus retroflexus, 504 h, 80 g/ha, scored visually after 3 weeks vs untreated controls, 100% = plants have died, 0% = like control plants",100%
same,pest or weed control at 80 g/ha,"[4]; Avena fatua, 504 h, 80 g/ha, pre-emergence",80%
same,pest or weed control at 20 g/ha,"[5]; Echinochloa crus-galli, 504 h, 20 g/ha",90%
same,pest or weed control at 80 g/ha,"[5]; Echinochloa crus-galli, 504 h, 80 g/ha",100%
same,pest or weed control at 20 g/ha,"[6]; Tripleurospermum inodorum, 504 h, dosage 20 g/ha",100%
same,pest or weed control at 80 g/ha,"[6]; Tripleurospermum inodorum, 504 h, dosage 80 g/ha",100%
same,pest or weed control at 80 g/ha,"[7]; Ipomoea purpurea, 504 h",90%
same,pest or weed control at 80 g/ha,"[8]; Fallopia convolvulus, 504 h",90%
same,pest or weed control at 80 g/ha,"[9]; Setaria viridis, 504 h, dosage 80 g/ha",80%
same,pest or weed control at 80 g/ha,"[10]; Veronica persica, 504 h, dosage 80 g/ha",80%
same,pest or weed control at 20 g/ha,"[11]; Viola tricolor, 504 h, dosage 20 g/ha",80%
same,pest or weed control at 80 g/ha,"[11]; Viola tricolor, 504 h, dosage 80 g/ha",100%
same,pest or weed control at 5 g/ha,"[12]; Abutilon theophrasti, 504 h, dosage 5 g/ha",90%
same,pest or weed control at 20 g/ha,"[12]; Abutilon theophrasti, 504 h, dosage 20 g/ha",90%
same,pest or weed control at 5 g/ha,"[13]; Alopecurus myosuroides, 504 h, dosage 5 g/ha",80%
same,pest or weed control at 20 g/ha,"[13]; Alopecurus myosuroides, 504 h, dosage 20 g/ha",90%
same,pest or weed control at 20 g/ha,"[14]; Amaranthus retroflexus, 504 h",100%
same,pest or weed control at 5 g/ha,"[15]; Echinochloa crus-galli, 504 h, dosage 5 g/ha",80%
same,pest or weed control at 20 g/ha,"[15]; Echinochloa crus-galli, 504 h, dosage 20 g/ha",90%
same,pest or weed control at 20 g/ha,"[16]; Tripleurospermum inodorum, 504 h",80%
same,pest or weed control at 20 g/ha,"[17]; Ipomoea purpurea, 504 h",80%
same,pest or weed control at 20 g/ha,"[18]; Setaria viridis, 504 h",80%
same,pest or weed control at 20 g/ha,"[19]; Veronica persica, 504 h, 20 g/ha",80%
same,pest or weed control at 5 g/ha,"[20]; Viola tricolor, 504 h, 5 g/ha",90%
same,pest or weed control at 20 g/ha,"[20]; Viola tricolor, 504 h, 20 g/ha",100%
